This test has as its target Beta-2 adrenergic receptor (Homo sapiens) (UniProt P07550).

The text below walks through data of ChEMBL document CHEMBL4425106, “Uncoupling the Structure-Activity Relationships of β2 Adrenergic Receptor Ligands from Membrane Binding” (J Med Chem, 2016).

Sequence of Beta-2 adrenergic receptor (Homo sapiens) (P07550 whole entry, looked up): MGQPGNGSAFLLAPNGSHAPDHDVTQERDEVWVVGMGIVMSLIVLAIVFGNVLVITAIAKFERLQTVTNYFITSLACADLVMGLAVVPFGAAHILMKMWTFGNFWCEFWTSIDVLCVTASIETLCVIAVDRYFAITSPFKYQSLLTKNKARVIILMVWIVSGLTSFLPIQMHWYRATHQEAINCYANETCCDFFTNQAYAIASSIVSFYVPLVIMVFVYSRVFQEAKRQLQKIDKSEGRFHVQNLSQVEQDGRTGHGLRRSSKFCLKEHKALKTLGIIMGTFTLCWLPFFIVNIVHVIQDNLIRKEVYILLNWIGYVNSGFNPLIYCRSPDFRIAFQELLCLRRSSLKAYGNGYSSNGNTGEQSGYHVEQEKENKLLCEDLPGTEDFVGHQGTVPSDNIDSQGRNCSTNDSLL
Description: Binding affinity to inactive/G protein-uncoupled human beta2-AR by immobilized artificial membrane HPLC analysis

As for `CC(C)(C)NCC(O)COc1cccc2c1CC(O)C(O)C2` (mixture of isomers), the log K came out at 1.7. Regarding `CC(C)(C)NCC(O)COc1cccc2[nH]c(C#N)cc12` (racemic), the log K amounted to 2.9.
